Measured values: US5298523A, “Method for treating transplant patients using mycalamide compounds” (priority 1992, dated 1994)
Values after ≈ are worked out from the molar mass of the structure shown. Where two headings read alike, the source gives them in different places.

Assays:
[1] = test system: allogeneic skin graft rejection, CBA mice; test: Allogeneic skin graft rejection (BALB/c to CBA); assay type: in vivo, mouse; design: key to Graft Scores: 0: rejection; +: no rejection; settings: 0.01 mg/kg
Procedure: Allogeneic skin grafting. The effects of mycalamide A on the rejection of allogeneic skin grafts were determined using the BALB/c→CBA skin graft model. Skin grafts were prepared from BALB/c donors as follows: donors were sacrificed by cervical dislocation and hair shaved from back, sides, and torso. A depilatory agent was used to remove any remaining hair. The prepared skin area was then swabbed with a Betadine and alcohol solution. The skin was removed by making an incision at the base of the tail, and the skin was lifted and separated from the underlying muscle in two sections. The skin was then placed in a sterile petri dish containing sterile, ice cold normal saline. A sterile, #7 cord borer was used to punch out approximately 16 graft discs from each animal skin preparation. Recipient CBA mice were anesthetized with 1.5 cc ketamine:xylamine. The back of each recipient animal was shaved and a depilatory agent used to remove excess hair. The prepared area was swabbed with Betadine:alcohol, and a small plug of skin, approximately the size of the prepared grafts, was removed by excision. The skin graft plug was then placed in the center of the excised region and the resulting transplanted area sprayed with a barrier film (liquid skin). Animals were placed one to a cage and supplied with sterile food and water, ad libitum. Mice were observed each day for signs of rejection of the graft (a shrinking and thickening of the graft with eventual sloughing).

[2] = test system: murine CD4^+ T cells; test: Activation of CD4+ T cells by anti-CD3 mAb/mB7; assay type: cell-based, murine (BALB/c)
Procedure: (A) Costimulation of T cells with anti-CD3 mAb and mB7. […] (B) Costimulation of T cells with mB7 and PMA. […] All cultures were incubated for 48 hours and pulsed with 1 μCi [ ^3 H] thymidine/well for the last 6 hours of the incubation period to assay for T cell proliferation.
(§1) (A) Costimulation of T cells with anti-CD3 mAb and mB7. 2×10^5 purified BALB/c CD4^+ T lymphocytes were stimulated with the indicated concentrations of anti-CD3 mAb in the presence of medium (.largecircle.), 2×10^4 paraformaldehyde-fixed CHO-mB7 cells (.quadrature.), or 2×10^4 paraformaldehyde-fixed CHO-mB7 cells in the presence of 0.1 nM FK506 (.gradient.), 1 nM FK506 (Δ), or 10 nM FK506 ( ). (B) Costimulation of T cells with mB7 and PMA. 2×10^5 purified BALB/c CD4^+ T lymphocytes were stimulated with the indicated concentrations of PMA and either medium (.largecircle.), 2×10^4 paraformaldehyde-fixed CHO-mB7 cells (.quadrature.), or paraformaldehyde-fixed CHO-mB7 cells in the presence of 0.1 nM FK506 (.gradient.), 1 nM FK506 (Δ), or 10 nM FK506 ( ). All cultures were incubated for 48 hours and pulsed with 1 μCi [^3 H] thymidine/well for the last 6 hours of the incubation period to assay for T cell proliferation.
as §1, with “pM mycalamide A” for “nM FK506”
mB7-mediated activation of murine CD4^+ T cells. Mouse T cells were purified as follows: splenocytes were depleted of red blood cells by treatment with Tris-NH4 Cl. T cells were enriched by nylon wool fractionation. CD4^+ T cells from BALB/c mice were purified by two-fold treatment with a mixture of anti-MHC Class II and anti-CD8 monoclonal antibodies and rabbit complement. Chinese hamster ovary cells (CHO) and CHO cells transfected with the murine B7 molecule (CHOmB7) were fixed with 1% paraformaldehyde prior to addition to the cultures. Microcultures were set up in duplicate 96-well plates. […] All cultures were incubated for 48 hours and pulsed with 1 μCi ^3 H-thymidine/well for the last 6 hours of the incubation period to assay for T cell proliferation.

[3] = test system: human peripheral blood lymphocytes (PBL); test: Mitogen-induced proliferation of human peripheral blood lymphocytes; assay type: cell-based; settings: Lymphocyte; for activity at 0.5 µg/mL: 5.0 × 10^-1 μg/ml; for activity at 0.05 µg/mL: 5.0 × 10^-2 μg/ml; for activity at 0.005 µg/mL: 5.0 × 10^-3 μg/ml; for activity at 0.0005 µg/mL: 5.0 × 10^-4 μg/ml; for activity at 50 pg/mL: 5.0 × 10^-5 μg/ml; for activity at 5 pg/mL: 5.0 × 10^-6 μg/ml; for activity at 500 fg/mL: 5.0 × 10^-7 μg/ml; for activity at 50 fg/mL: 5.0 × 10^-8 μg/ml; for activity at 5 fg/mL: 5.0 × 10^-9 μg/ml; for activity at 5e-10 µg/mL: 5.0 × 10^-10 μg/ml; for activity at 5e-11 µg/mL: 5.0 × 10^-11 μg/ml
Procedure: Preparation of human peripheral blood leukocyte (PBL) suspensions. Human peripheral blood suspensions were prepared from Leukotrap blood filters as follows: Leukotrap filters containing processed leukocytes from random, unrelated blood donors were obtained from the Indian River Blood Bank (Vero Beach, Fla.). Buffy-coat blood cell suspensions were recovered by reverse-flow phosphate-buffered saline purging and centrifugation for 15 minutes at 475× g. Buffy coats were removed, and 5 ml of the suspension was layered onto 5 ml of Histopaque gradient material. The Histopaque gradients were centrifuged at 475× g for 30 minutes. Lymphocytes were removed from the Histopaque-medium interface, and washed twice with 10 ml of PBS (Dulbecco's phosphate-buffered saline without CaCl2 and MgCl2.6H2 O). The final cell pellet was resuspended in TCM, and the cell concentration adjusted to 2×10^6 cells/ml.

[4] = Con A, read-out: Con A, % of control
[5] = PHA, read-out: PHA, % of control

C=C1CC(OC)(C(O)C(=O)NC2OCOC3C2OC(CC(O)CO)C(C)(C)C3OC)OC(C)C1C (stereo not shown) [Mycalamide A, mycalamide A]
% Alive ([1]; Q2D × 7, 1-14 IP, D35): 0%
Graft Scores ([1]; Q2D × 7, 1-14 IP, D35): +
mean rejection time ([1]; twice daily, intraperitoneally for 14 days): 17.8 days
effect on rejection of allogeneic skin grafts ([1]; twice daily, intraperitoneally for 14 days, in words): suppressed the normal rejection of allogeneic skin grafts
effect on anti-CD3/mB7 activation of CD4+ cells ([2]; anti-CD3/mB7, in words): blocks activation
times more potent than FK506 ([2]; immunosuppressive activity vs FK506): 10 times
times more potent than cyclosporin A ([2]; immunosuppressive activity vs cyclosporin A): approximately 1000 times
suppressive activity compared with FK506 or CsA ([2]; in words): superior to FK506 or CsA
activity at 0.5 µg/mL [3, 4]: 0%
activity at 0.05 µg/mL [3, 4]: 0%
activity at 0.005 µg/mL [3, 4]: 0%
activity at 0.0005 µg/mL [3, 4]: 10%
activity at 50 pg/mL [3, 4]: 44%
activity at 5 pg/mL [3, 4]: 74%
activity at 500 fg/mL [3, 4]: 78%
activity at 50 fg/mL [3, 4]: 82%
activity at 5 fg/mL [3, 4]: 90%
activity at 5e-10 µg/mL [3, 4]: 99%
activity at 5e-11 µg/mL [3, 4]: 93%
activity at 0.5 µg/mL [3, 5]: 0%
activity at 0.05 µg/mL [3, 5]: 0%
activity at 0.005 µg/mL [3, 5]: 0%
activity at 0.0005 µg/mL [3, 5]: 9%
activity at 50 pg/mL [3, 5]: 41%
activity at 5 pg/mL [3, 5]: 41%
activity at 500 fg/mL [3, 5]: 40%
activity at 50 fg/mL [3, 5]: 43%
activity at 5 fg/mL [3, 5]: 42%
activity at 5e-10 µg/mL [3, 5]: 36%
activity at 5e-11 µg/mL [3, 5]: 47%
IC50 ([3]; read-out: IC50, PHA stimulation of human PBL): ~0.0057 ng/mL (≈ 0.0113 nM)
